Measured values: patent US20240124417A1, “COMPOUNDS USEFUL AS IMMUNOMODULATORS” (Bristol-Myers Squibb Company, priority 2019, published 2024)

target: T1, PD-1/PD-L1 (Homo sapiens, UniProt Q9NZQ7); assay: PD-1/PD-L1 Homogenous Time-Resolved Fluorescence (HTRF) binding assay; details: PD-L1-His 10 nM, PD-1-Ig 20 nM
T1 construct: TVMV protease site linker (C); made in house; host or cells: HEK293T cells
Method in brief: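 Inhibitors pre-incubated 15 min with PD-L1-His extracellular domain (10 nM final) in dPBS with 0.1% BSA and 0.05% Tween-20, then PD-1-Ig (20 nM final) added for a further 15 min. Read-out by HTRF with europium cryptate anti-Ig (1 nM) and APC anti-His (20 nM). Related pairs: PD-1-Ig/PD-L2-His (20/5 nM), CD80-His/PD-L1-Ig (100/10 nM).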

T1 sequence (Q9NZQ7 18-239): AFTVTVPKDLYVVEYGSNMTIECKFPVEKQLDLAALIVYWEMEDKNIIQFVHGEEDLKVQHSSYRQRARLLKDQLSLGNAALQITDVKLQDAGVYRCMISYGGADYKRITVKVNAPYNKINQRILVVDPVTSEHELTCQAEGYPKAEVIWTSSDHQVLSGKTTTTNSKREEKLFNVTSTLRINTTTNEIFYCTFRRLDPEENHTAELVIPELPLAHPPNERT

Row | Structure (SMILES) | IC50 [nM]
1 | Cc1c(COc2cc(OCc3cncc(C#N)c3)c(CN3CCC(c4nnn[nH]4)C3)cc2Cl)cccc1-c1cccc(OCCCNC[C@H](O)CO)c1Cl (stereo partly drawn) [Example 1033, 5-((2-((3-(1H-Tetrazol-5-yl)pyrrolidin-1-yl)methyl)-4-chloro-5-((2′-chloro-3′-(3-(((S)-2,3-dihydroxypropyl)amino)propoxy)-2-methyl-[1,1′-biphenyl]-3-yl)methoxy)phenoxy)-methyl)nicotinonitrile] | 2.1
2 | COCc1noc(CNCc2cc(Cl)c(OCc3cccc(-c4cccc(OCCCN5CC[C@@H](O)C5)c4C)c3C)cc2OCc2cncc(C#N)c2)n1 [Example 2558, (R)-5-((4-chloro-5-((3′-(3-(3-hydroxypyrrolidin-1-yl)propoxy)-2,2′-dimethyl-[1,1′-biphenyl]-3-yl)methoxy)-2-((((3-(methoxymethyl)-1,2,4-oxadiazol-5-yl)methyl)amino)methyl)phenoxy)methyl)nicotinonitrile] | 6.4
3 | Cc1c(COc2cc(OCc3cncc(C#N)c3)c(CNCc3nc4ccccc4s3)cc2Cl)cccc1-c1cccc(OCC2CCCN(C)C2)c1Cl (stereo not drawn) [Example 2611, 5-((2-(((benzo[d]thiazol-2-ylmethyl)amino)methyl)-4-chloro-5-((2′-chloro-2-methyl-3′-((1-methylpiperidin-3-yl)methoxy)-[1,1′-biphenyl]-3-yl)methoxy)phenoxy)methyl)nicotinonitrile] | 5.9
4 | Cc1c(COc2cc(OCc3cncc(C#N)c3)c(CNCc3ccncc3)cc2Cl)cccc1-c1cccc(OCCCN2CC[C@@H](O)C2)c1C [Example 2019, (R)-5-((4-chloro-5-((3′-(3-(3-hydroxypyrrolidin-1-yl)propoxy)-2,2′-dimethyl-[1,1′-biphenyl]-3-yl)methoxy)-2-(((pyridin-4-ylmethyl)amino)methyl)phenoxy)methyl)nicotinonitrile] | 4.1
5 | Cc1c(COc2cc(OCc3cncc(C#N)c3)c(CN(C)CCc3nc4ccccc4[nH]3)cc2Cl)cccc1-c1cccc(OCCCN2CC[C@@H](O)C2)c1C [Example 2508, (R)-5-((2-(((2-(1H-benzo[d]imidazol-2-yl)ethyl)(methyl)amino)methyl)-4-chloro-5-((3′-(3-(3-hydroxypyrrolidin-1-yl)propoxy)-2,2′-dimethyl-[1,1′-biphenyl]-3-yl)methoxy)phenoxy)methyl)nicotinonitrile] | 6.2
6 | Cc1c(COc2cc(OCc3cncc(C#N)c3)c(CN(C)CCc3nn[nH]n3)cc2Cl)cccc1-c1cccc(OCCCN2CC[C@@H](O)C2)c1C [Example 1004, (R)-5-((2-(((2-(2H-Tetrazol-5-yl)ethyl)(methyl)amino)methyl)-4-chloro-5-((3′-(3-(3-hydroxypyrrolidin-1-yl)propoxy)-2,2′-dimethyl-[1,1′-biphenyl]-3-yl)methoxy)phenoxy)-methyl)nicotinonitrile] | 1.1
7 | Cc1c(COc2cc(OCc3cncc(C#N)c3)c(CN(C)Cc3cn[nH]c3)cc2Cl)cccc1-c1cccc(OCCCN2CC[C@@H](O)C2)c1C [Example 2525, (R)-5-((2-((((1H-pyrazol-4-yl)methyl)(methyl)amino)methyl)-4-chloro-5-((3′-(3-(3-hydroxypyrrolidin-1-yl)propoxy)-2,2′-dimethyl-[1,1′-biphenyl]-3-yl)methoxy)phenoxy)methyl)nicotinonitrile] | 2.2
8 | CC(=O)NC1CCN(CCCOc2cccc(-c3cccc(COc4cc(OCc5cncc(C#N)c5)c(CN5CCCCC5c5nnn[nH]5)cc4Cl)c3C)c2C)CC1 (stereo not drawn) [Example 1048, N-(1-(3-((3′-((4-((2-(1H-Tetrazol-5-yl)piperidin-1-yl)methyl)-2-chloro-5-((5-cyano-pyridin-3-yl)methoxy)phenoxy)methyl)-2,2′-dimethyl-[1,1′-biphenyl]-3-yl)oxy)propyl)-piperidin-4-yl)acetamide] | 0.5
9 | Cc1c(COc2cc(OCc3cncc(C#N)c3)c(CNCc3ncc[nH]3)cc2Cl)cccc1-c1cccc(OCC2CCCN(C)C2)c1Cl (stereo not drawn) [Example 2577, 5-((2-((((1H-imidazol-2-yl)methyl)amino)methyl)-4-chloro-5-((2′-chloro-2-methyl-3′-((1-methylpiperidin-3-yl)methoxy)-[1,1′-biphenyl]-3-yl)methoxy)phenoxy)methyl)nicotinonitrile] | 1.6
10 | Cc1c(COc2cc(OCc3cncc(C#N)c3)c(CNCc3ccnc(C(N)=O)n3)cc2Cl)cccc1-c1cccc(OCCCN2CC[C@@H](O)C2)c1C [Example 2041, (R)-4-(((5-chloro-2-((5-cyanopyridin-3-yl)methoxy)-4-((3′-(3-(3-hydroxypyrrolidin-1-yl)propoxy)-2,2′-dimethyl-[1,1′-biphenyl]-3-yl)methoxy)benzyl)amino)methyl)pyrimidine-2-carboxamide] | 1.9
11 | Cc1c(COc2cc(OCc3cncc(C#N)c3)c(CNCCc3ncn[nH]3)cc2Cl)cccc1-c1cccc(OCCCN2CC[C@@H](O)C2)c1C [Example 2519, (R)-5-((2-(((2-(1H-1,2,4-triazol-5-yl)ethyl)amino)methyl)-4-chloro-5-((3′-(3-(3-hydroxypyrrolidin-1-yl)propoxy)-2,2′-dimethyl-[1,1′-biphenyl]-3-yl)methoxy)phenoxy)methyl)nicotinonitrile] | 1
12 | Cc1c(COc2cc(OCc3cncc(C#N)c3)c(CN(C)Cc3cc(-c4ccccc4)on3)cc2Cl)cccc1-c1cccc(OCCCN2CC[C@@H](O)C2)c1C [Example 2543, (R)-5-((4-chloro-5-((3′-(3-(3-hydroxypyrrolidin-1-yl)propoxy)-2,2′-dimethyl-[1,1′-biphenyl]-3-yl)methoxy)-2-((methyl((5-phenylisoxazol-3-yl)methyl)amino)methyl)phenoxy)methyl)nicotinonitrile] | 192
13 | Cc1c(COc2cc(OCc3cncc(C#N)c3)c(CN(C)Cc3ccccn3)cc2Cl)cccc1-c1cccc(OCCCN2CC[C@@H](O)C2)c1C [Example 2028, (R)-5-((4-chloro-5-((3′-(3-(3-hydroxypyrrolidin-1-yl)propoxy)-2,2′-dimethyl-[1,1′-biphenyl]-3-yl)methoxy)-2-((methyl(pyridin-2-ylmethyl)amino)methyl)phenoxy)methyl)nicotinonitrile] | 0.2
14 | Cc1c(COc2cc(OCc3cncc(C#N)c3)c(CN3CCCC3c3cn[nH]c3)cc2Cl)cccc1-c1cccc(OCC2CCCN(C)C2)c1Cl (stereo not drawn) [Example 1025, 5-((2-((2-(1H-Pyrazol-4-yl)pyrrolidin-1-yl)methyl)-4-chloro-5-((2′-chloro-2-methyl-3′-((1-methylpiperidin-3-yl)methoxy)-[1,1′-biphenyl]-3-yl)methoxy)phenoxy)methyl)-nicotinonitrile] | 0.5
15 | Cc1c(COc2cc(OCc3cncc(C#N)c3)c(CN3CCCC(c4nnc[nH]4)C3)cc2Cl)cccc1-c1cccc(OCCCN2CC[C@@H](O)C2)c1C (stereo partly drawn) [Example 1008, 5-((2-((3-(4H-1,2,4-Triazol-3-yl)piperidin-1-yl)methyl)-4-chloro-5-((3′-(3-((R)-3-hydroxypyrrolidin-1-yl)propoxy)-2,2′-dimethyl-[1,1′-biphenyl]-3-yl)methoxy)phenoxy)-methyl)nicotinonitrile] | 4.2
16 | CC(=O)NC1CCN(CCCOc2cccc(-c3cccc(COc4cc(OCc5cncc(C#N)c5)c(CN5CCC(c6nnn[nH]6)C5)cc4Cl)c3C)c2C)CC1 (stereo not drawn) [Example 1042, N-(1-(3-((3′-((4-((3-(1H-Tetrazol-5-yl)pyrrolidin-1-yl)methyl)-2-chloro-5-((5-cyano-pyridin-3-yl)methoxy)phenoxy)methyl)-2,2′-dimethyl-[1,1′-biphenyl]-3-yl)oxy)propyl)-piperidin-4-yl)acetamide] | 0.2
17 | Cc1nnc(CNCc2cc(Cl)c(OCc3cccc(-c4cccc(OCC5CCCN(C)C5)c4Cl)c3C)cc2OCc2cncc(C#N)c2)[nH]1 (stereo not drawn) [Example 2604, 5-((4-chloro-5-((2′-chloro-2-methyl-3′-((1-methylpiperidin-3-yl)methoxy)-[1,1′-biphenyl]-3-yl)methoxy)-2-((((5-methyl-4H-1,2,4-triazol-3-yl)methyl)amino)methyl)phenoxy)methyl)nicotinonitrile] | 2.3
18 | CC(=O)NC1CCN(CCCOc2cccc(-c3cccc(COc4cc(OCc5cncc(C#N)c5)c(CN5CCCCC5c5cnn(C)c5)cc4Cl)c3C)c2C)CC1 (stereo not drawn) [Example 1054, N-(1-(3-((3′-((2-Chloro-5-((5-cyanopyridin-3-yl)methoxy)-4-((2-(1-methyl-1H-pyrazol-4-yl)piperidin-1-yl)methyl)phenoxy)methyl)-2,2′-dimethyl-[1,1′-biphenyl]-3-yl)oxy)-propyl)piperidin-4-yl)acetamide] | 3
19 | Cc1ncsc1CCN(C)Cc1cc(Cl)c(OCc2cccc(-c3cccc(OCCCN4CC[C@@H](O)C4)c3C)c2C)cc1OCc1cncc(C#N)c1 [Example 2511, (R)-5-((4-chloro-5-((3′-(3-(3-hydroxypyrrolidin-1-yl)propoxy)-2,2′-dimethyl-[1,1′-biphenyl]-3-yl)methoxy)-2-((methyl(2-(4-methylthiazol-5-yl)ethyl)amino)methyl)phenoxy)methyl)nicotinonitrile] | 3.3
20 | Cc1c(COc2cc(OCc3cncc(C#N)c3)c(CN3CCc4cn[nH]c4C3)cc2Cl)cccc1-c1cccc(OCCCN2CC[C@@H](O)C2)c1C [Example 2569, (R)-5-((4-chloro-5-((3′-(3-(3-hydroxypyrrolidin-1-yl)propoxy)-2,2′-dimethyl-[1,1′-biphenyl]-3-yl)methoxy)-2-((1,4,5,7-tetrahydro-6H-pyrazolo[3,4-c]pyridin-6-yl)methyl)phenoxy)methyl)nicotinonitrile] | 5.5
21 | CCc1csc(CN(C)Cc2cc(Cl)c(OCc3cccc(-c4cccc(OCCCN5CC[C@@H](O)C5)c4C)c3C)cc2OCc2cncc(C#N)c2)n1 [Example 2553, (R)-5-((4-chloro-2-((((4-ethylthiazol-2-yl)methyl)(methyl)amino)methyl)-5-((3′-(3-(3-hydroxypyrrolidin-1-yl)propoxy)-2,2′-dimethyl-[1,1′-biphenyl]-3-yl)methoxy)phenoxy)methyl)nicotinonitrile] | 30.1
